US20150296765A1, “DEVICE FOR SPRAYING POWDERY CHEMICAL AGENT AND PROCESS FOR SPRAYING POWDERY CHEMICAL AGENT” (EARTH CHEMICAL CO., LTD., priority 2012, published 2015)
Read-outs that look alike come from different tables or passages of the source.

Legend:
Smoky-brown cockroaches [1] = conditions: for insect pest-controlling effect (in words): summary of Tables 5 and 6
Excerpt: (§1) Contents of the test are as follows.
(§2) 1. A test plot having a floor area of about 9 m^2 (270 cm in length×340 cm in width×15 cm in height) as shown in FIG. 5 was set in the interior of a room of 470 cm in length×540 cm in width. The powdery chemical agent spraying device 1 in which the cylindrical body 23 is connected directly with a pump P is placed in the center of a test plot floor face 100; corrugated boxes (A), (B), and (C) each imitating a gap between a kitchen sink and a refrigerator are arranged near one side of the test plot floor face 100 (lower portion in FIG. 5); and a bait 101 and water 103 are arranged near the other side of the test plot floor face 100 (upper portion in FIG. 5). 2. Smoky-brown cockroaches are released on the test plot floor face 100 and habituated in the corrugated boxes (A), (B), and (C), and thereafter, the powdery chemical agent 30 is sprayed from the powdery chemical agent spraying device 1 in which a discharge port of the pump P set up at a pressure of 100 kPa is connected directly with the cylindrical body 23. (Number of test insects: 49 females and 48 males for dinotefura and 50 females and 49 males for d.d-T-cyphenothrin) 3. […] 4. A knockdown (KD) rate and a mortality rate at every passage of a time based on the count number are calculated.
Device in which the discharge port of the pump (rolling pump, manufactured by Okenseiko Co., Ltd.; two pumps of Model Nos. P30C02R8516 and M42C02R8516 coupled with each other) P is connected directly with the cylindrical body 23 (In order to confirm a breaking pressure of each of the sealing films 25 and 27, a pressure gauge G is placed therebetween.)
Cylindrical body 23: The same as the cylindrical body 23 used in the measuring test of falling amount of chemical agent on floor face of Example 1.
Sealing films 25 and 27: The same as the sealing films 25 and 27 used in the measuring test of falling amount of chemical agent on floor face of Example 1.
(§3) Corrugated boxes (A) and (B): Two holes (2 cm×2 cm) through which the cockroach can come and go are opened in front of a corrugated box of 50 cm in length×50 cm in width×25 cm in height.
(§4) Corrugated box (C): The front and the rear of a corrugated box of 50 cm in length×50 cm in width×3 cm in height are fully opened.

Smoky-brown cockroaches [2] = tested on: Smoky-brown cockroaches
Excerpt: as §1
as §2, with “FIG. 4” for “FIG. 5”, “1” for “1 in which the cylindrical body 23 is connected directly with a pump P”, “FIG. 4);” for “FIG. 5);”, “FIG. 4).” for “FIG. 5).”, “2. 28 females and 29 males of smoky-brown” for “2. Smoky-brown”, “device 1. […]” for “device 1 in which a discharge port of the pump P set up at a pressure of 100 kPa is connected directly with the cylindrical body 23. (Number of test insects: 49 females and 48 males for dinotefura and 50 females and 49 males for d.d-T-cyphenothrin)”
Container body 11: PET bottle having a capacity of 280 mL
Cylindrical body 23: Acrylic pipe having an inside diameter of 7 mm and a length of 50 mm
Sealing film 25: Parafilm (trade name: […] M, 4 inch×125 feet)
Sealing film 27: Parafilm (trade name: […] M, 4 inch×125 feet)
The Parafilm was wound around each end part of the cylindrical body 23 to prepare the sealing films 25 and 27, respectively.
The Parafilm was wound without being stretched and adjusted such that a pressure at the time of breaking of each of the sealing films 25 and 27 was 100 kPa.
Sodium bicarbonate 41: 3.8 g
as §3, §4

SMILES | KD and mortality (Smoky-brown cockroaches [1]; passage of time 2 hr) [%] | KD (Smoky-brown cockroaches [1]; passage of time 14.5 hr) [%] | KD and mortality (Smoky-brown cockroaches [1]; passage of time 14.5 hr) [%] | KD and mortality (Smoky-brown cockroaches [1]; passage of time 16 hr) [%] | KD and mortality (Smoky-brown cockroaches [1]; passage of time 23 hr) [%] | KD (Smoky-brown cockroaches [1]; passage of time 43 hr) [%] | KD and mortality (Smoky-brown cockroaches [1]; passage of time 43 hr) [%] | KD (Smoky-brown cockroaches [1]; passage of time 48 hr) [%] | KD and mortality (Smoky-brown cockroaches [1]; passage of time 48 hr) [%] | KD and mortality (Smoky-brown cockroaches [1]; passage of time […]) [%] | insect pest-controlling effect (in words) (Smoky-brown cockroaches [1]) | KD and mortality (Smoky-brown cockroaches [2]; passage of time 3 hr) [%] | KD and mortality (Smoky-brown cockroaches [2]; passage of time 6 hr) [%] | KD (Smoky-brown cockroaches [2]; passage of time 18 hr) [%] | KD and mortality (Smoky-brown cockroaches [2]; passage of time 18 hr) [%] | KD and mortality (Smoky-brown cockroaches [2]; passage of time 24 hr) [%] | KD (Smoky-brown cockroaches [2]; passage of time 32 hr) [%] | KD and mortality (Smoky-brown cockroaches [2]; passage of time 32 hr) [%] | KD (Smoky-brown cockroaches [2]; passage of time 48 hr) [%] | KD and mortality (Smoky-brown cockroaches [2]; passage of time 48 hr) [%]
CN/C(=N/CC1CCOC1)N[N+](=O)[O-] (stereo not drawn) [Chemical agent B, dinotefuran] | 3 | 43 | 59 | 71 | 82 | 18 | 96 | 15 | 96 | 2 | a high effectiveness is obtained | 2 | 9 | 25 | 40 | 88 | 9 | 95 | 7 | 96
CC(C)=CC1C(C(=O)OC(C#N)c2cccc(Oc3ccccc3)c2)C1(C)C (stereo not drawn) [d.d-T-cyphenothrin] | – | – | – | – | – | – | – | – | – | – | a high insect pest-exterminating effect could be obtained | – | – | – | – | – | – | – | – | –
